# According to patent publication US12655184B2, “Labyrinthin-based peptides for cancer immunotherapies and uses thereof” (LABYRX IMMUNOLOGIC THERAPEUTICS (USA) LIMITED, priority 2018, dated 2026):
# Ends that are not written are not given here.
# Legend:
# Type in all cases: physicochemical
# [1] = solubility in phosphate buffer with/without 0.9% NaCl, pH serially lowered with acetic acid, concentration remaining in solution
# Procedure: In further solubility testing, two tubes of 1.1 mg peptide for each of the four candidate peptides target was dissolved into 1 mL phosphate buffer (pH 10) (with and without 0.9% NaCl). The peptide solutions were subsequently stored at 4° C. for several hours to dissolve the peptides thoroughly. Following centrifugation, the peptide concentration that remained in solution was measured. The solubility of all four peptide candidates under all tested condition in Table 6 as above 0.3 mg/mL, and for each peptide candidate the variability of solubility across the pH ranges tested was minimal.
# [2] = solubility by visual examination in ultrapure water, PBS and DMSO; settings: for Solubility, PBS (pH 7.4): 0.1 M PBS pH 7.4, visual examination
# Procedure: The solubility of each labyrinthin-derived peptide candidate was assessed by visual examination in ultrapure water, 0.1 M PBS (PBS; pH 7.4), and dimethyl sulfoxide (DMSO; analytical grade). As reported in Table 4, a solubility of less than 0.1 mg/mL of solvent was defined as “Undissolved” and solubility of greater than or 0.1 mg/mL was defined as “Dissolved.” The concentration range of measured solubility is provided under the “Dissolved” classification where available (Table 4).
# [3] = solubility tests in DMSO, normal saline and 0.2 M NaCl by visual examination; settings: for Solubility (dissolved Yes/No), 0.2M Sodium (NaCl): 0.2 M NaCl; for Solubility (dissolved Yes/No), 0.154M Sodium (NaCl): normal saline, 0.154 M NaCl
# Procedure: Additional testing was completed to attempt to overcome the above-identified solubility issues. Results of the solubility tests performed for each labyrinthin-derived peptide candidate (SEQ ID NOS:29-32) are shown in Table 5. In short, all peptides were again dissolved in DMSO, confirming that the peptides had the capacity to dissolve in solution. Peptide solubility was then tested in normal saline (0.154 M sodium (NaCl)) and 0.2 M sodium (NaCl). Normal saline is generally an option as a solvent/diluent as use for such purpose is accepted by the […]. […] Additional solutions were tested to determine an alternative diluent to solubilize the candidate peptides, as determined by visual examination.
# [4] = pH 4, PBS with 0.9% NaCl, pH 4, read-out: Solubility pH 4
# [5] = pH 4, PBS without NaCl, pH 4, read-out: Solubility pH 4
# [6] = pH 5, PBS with 0.9% NaCl, pH 5, read-out: Solubility pH 5
# [7] = pH 5, PBS without NaCl, pH 5, read-out: Solubility pH 5
# [8] = pH 5.5, PBS with 0.9% NaCl, pH 5.5, read-out: Solubility pH 5.5
# [9] = pH 5.5, PBS without NaCl, pH 5.5, read-out: Solubility pH 5.5
# [10] = pH 6, PBS with 0.9% NaCl, pH 6, read-out: Solubility pH 6
# [11] = pH 6, PBS without NaCl, pH 6, read-out: Solubility pH 6
# [12] = pH 6.5, PBS with 0.9% NaCl, pH 6.5, read-out: Solubility pH 6.5
# [13] = pH 6.5, PBS without NaCl, pH 6.5, read-out: Solubility pH 6.5
# [14] = pH 7, PBS with 0.9% NaCl, pH 7, read-out: Solubility pH 7
# [15] = pH 7, PBS without NaCl, pH 7, read-out: Solubility pH 7
# [16] = pH 7.5, PBS with 0.9% NaCl, pH 7.5, read-out: Solubility pH 7.5
# [17] = pH 7.5, PBS without NaCl, pH 7.5, read-out: Solubility pH 7.5
# [18] = pH 8, PBS with 0.9% NaCl, pH 8, read-out: Solubility pH 8
# [19] = pH 8, PBS without NaCl, pH 8, read-out: Solubility pH 8
# [20] = pH 8.5, PBS with 0.9% NaCl, pH 8.5, read-out: Solubility pH 8.5
# [21] = pH 8.5, PBS without NaCl, pH 8.5, read-out: Solubility pH 8.5
# [22] = pH 9, PBS with 0.9% NaCl, pH 9, read-out: Solubility pH 9
# [23] = pH 9, PBS without NaCl, pH 9, read-out: Solubility pH 9
# [24] = pH 10, PBS with 0.9% NaCl, pH 10, read-out: Solubility pH 10
# [25] = pH 10, PBS without NaCl, pH 10, read-out: Solubility pH 10
# [26] = DMSO analytical grade, visual examination, read-out: Solubility, DMSO
# [27] = DMSO, read-out: concentration range of measured solubility, DMSO
# [28] = pH 7.4, 0.1 M PBS pH 7.4, visual examination, read-out: Solubility, PBS (pH 7.4)
# [29] = pH 7.4, 0.1 M PBS pH 7.4, read-out: concentration range of measured solubility, PBS (pH 7.4)
# [30] = ultrapure water, visual examination
# [31] = ultrapure water, visual examination, read-out: Solubility, Ultrapure water
"solubility [1, 4]","solubility [1, 5]","solubility [1, 6]","solubility [1, 7]","solubility [1, 8]","solubility [1, 9]","solubility [1, 10]","solubility [1, 11]","solubility [1, 12]","solubility [1, 13]","solubility [1, 14]","solubility [1, 15]","solubility [1, 16]","solubility [1, 17]","solubility [1, 18]","solubility [1, 19]","solubility [1, 20]","solubility [1, 21]","solubility [1, 22]","solubility [1, 23]",Sequence,further results
496 µg/mL,647 µg/mL,510 µg/mL,669 µg/mL,510 µg/mL,667 µg/mL,529 µg/mL,674 µg/mL,498 µg/mL,673 µg/mL,539 µg/mL,710 µg/mL,555 µg/mL,712 µg/mL,542 µg/mL,720 µg/mL,540 µg/mL,730 µg/mL,548 µg/mL,738 µg/mL,DMEEMMSEQENPDSSEPVVEDE [SEQ ID NO: 30],"solubility [1, 24]: 552 µg/mL; solubility [1, 25]: 726 µg/mL; solubility [2, 26]: > 100 µg/mL; solubility [2, 27]: ≤ 10000 µg/mL; solubility [2, 28]: > 100 µg/mL; solubility [2, 29]: ≤ 10000 µg/mL; Solubility, Ultrapure water [2, 30]: undissolved; solubility [2, 31]: < 100 µg/mL; Solubility (dissolved Yes/No), 0.2M Sodium (NaCl) [3]: Yes; Solubility (dissolved Yes/No), DMSO [3]: Yes; Solubility (dissolved Yes/No), 0.154M Sodium (NaCl) [3]: Yes"
382 µg/mL,387 µg/mL,401 µg/mL,397 µg/mL,412 µg/mL,337 µg/mL,411 µg/mL,404 µg/mL,406 µg/mL,407 µg/mL,412 µg/mL,402 µg/mL,412 µg/mL,415 µg/mL,415 µg/mL,421 µg/mL,433 µg/mL,424 µg/mL,426 µg/mL,445 µg/mL,DSQVIVEEVSIFPVEEQQEVPPD [SEQ ID NO: 32],"solubility [1, 24]: 413 µg/mL; solubility [1, 25]: 419 µg/mL; Solubility, PBS (pH 7.4) [2]: did not improve solubility; solubility [2, 26]: > 100 µg/mL; solubility [2, 27]: ≤ 10000 µg/mL; solubility [2, 28]: < 100 µg/mL; Solubility, Ultrapure water [2, 30]: undissolved; solubility [2, 31]: < 100 µg/mL; Solubility (dissolved Yes/No), 0.2M Sodium (NaCl) [3]: Yes; Solubility (dissolved Yes/No), DMSO [3]: Yes; Solubility (dissolved Yes/No), 0.154M Sodium (NaCl) [3]: No; Solubility (dissolved Yes/No), 0.154M Sodium (NaCl) ([3]; listed as SEQ ID NO:32): did not dissolve"
687 µg/mL,731 µg/mL,694 µg/mL,738 µg/mL,695 µg/mL,738 µg/mL,695 µg/mL,742 µg/mL,706 µg/mL,753 µg/mL,701 µg/mL,748 µg/mL,703 µg/mL,757 µg/mL,707 µg/mL,756 µg/mL,702 µg/mL,762 µg/mL,707 µg/mL,757 µg/mL,GEDLQQEDGPTGEPQQEDDEFL [SEQ ID NO: 29],"solubility [1, 24]: 708 µg/mL; solubility [1, 25]: 765 µg/mL; solubility [2, 26]: > 100 µg/mL; solubility [2, 28]: > 100 µg/mL; solubility [2, 29]: ≤ 10000 µg/mL; solubility [2, 31]: > 100 µg/mL; solubility ([2]; ultrapure water, read-out: concentration range of measured solubility, Ultrapure water): ≤ 10000 µg/mL; Solubility (dissolved Yes/No), 0.2M Sodium (NaCl) [3]: Yes; Solubility (dissolved Yes/No), DMSO [3]: Yes; Solubility (dissolved Yes/No), 0.154M Sodium (NaCl) [3]: Yes"
806 µg/mL,777 µg/mL,813 µg/mL,802 µg/mL,826 µg/mL,819 µg/mL,833 µg/mL,773 µg/mL,831 µg/mL,769 µg/mL,838 µg/mL,825 µg/mL,852 µg/mL,812 µg/mL,861 µg/mL,847 µg/mL,848 µg/mL,854 µg/mL,866 µg/mL,857 µg/mL,NEGIEITEVTAPPEDNPVEDSQ [SEQ ID NO: 31],"solubility [1, 24]: 881 µg/mL; solubility [1, 25]: 849 µg/mL; Solubility, PBS (pH 7.4) [2]: did not improve solubility; solubility [2, 26]: > 100 µg/mL; solubility [2, 27]: ≤ 5000 µg/mL; solubility [2, 28]: < 100 µg/mL; Solubility, Ultrapure water [2, 30]: undissolved; solubility [2, 31]: < 100 µg/mL; Solubility (dissolved Yes/No), 0.2M Sodium (NaCl) [3]: Yes; Solubility (dissolved Yes/No), DMSO [3]: Yes; Solubility (dissolved Yes/No), 0.154M Sodium (NaCl) [3]: No; Solubility (dissolved Yes/No), 0.154M Sodium (NaCl) ([3]; listed as SEQ ID NO:31): did not dissolve"
